Tests used:
Experiment in all cases: relative viability (nuclei count vs DMSO), 5 days (fraction); higher = more cells survive
201T = system: 201T
Procedure, shortened: (§1)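 Each reported value is a median over duplicate plates. It expresses relative viability: treated-well nuclei count divided by vehicle-well nuclei count. Lung cancer cell lines in 1536-well plates were dosed by pin tool a day after seeding, alone with one drug or with a fixed anchor-drug dose plus five library-drug doses (not always all listed) in √10 steps, and nuclei were counted after 5 days.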

NCI-H2126 = system: NCI-H2126
Procedure, shortened: as §1

NCI-H838 = system: NCI-H838
Procedure, shortened: as §1

NCI-H23 = system: NCI-H23
Procedure, shortened: as §1

NCI-H647 = system: NCI-H647
Procedure, shortened: as §1

NCI-H1666 = system: NCI-H1666
Procedure, shortened: as §1

NCI-H1395 = system: NCI-H1395
Procedure, shortened: as §1

LOU-NH91 = system: LOU-NH91
Procedure, shortened: as §1

BEN = system: BEN
Procedure, shortened: as §1

NCI-H2347 = system: NCI-H2347
Procedure, shortened: as §1

NCI-H441 = system: NCI-H441
Procedure, shortened: as §1

NCI-H2009 = system: NCI-H2009
Procedure, shortened: as §1

NCI-H650 = system: NCI-H650
Procedure, shortened: as §1

EMC-BAC-2 = system: EMC-BAC-2
Procedure, shortened: as §1

NCI-H596 = system: NCI-H596
Procedure, shortened: as §1

HCC-44 = system: HCC-44
Procedure, shortened: as §1

HARA = system: HARA
Procedure, shortened: as §1

NCI-H1993 = system: NCI-H1993
Procedure, shortened: as §1

NCI-H2023 = system: NCI-H2023
Procedure, shortened: as §1

LCLC-103H = system: LCLC-103H
Procedure, shortened: as §1

NCI-H727 = system: NCI-H727
Procedure, shortened: as §1

NCI-H2087 = system: NCI-H2087
Procedure, shortened: as §1

NCI-H3122 = system: NCI-H3122
Procedure, shortened: as §1

O=C(O)c1ccc(-c2c[nH]c3ncc(-c4ccccc4)cc23)cc1C1CCCC1 + N=C(N)NC(=N)NCCc1ccccc1 [Phenformin] (partner 250 µM)
relative viability (201T; first compound 0.04 µM): 0.477 | relative viability (201T; first compound 0.1265 µM): 0.45 | relative viability (201T; first compound 0.4 µM): 0.456 | relative viability (201T; first compound 1.265 µM): 0.437 | relative viability (NCI-H2126; first compound 0.04 µM): 0.571 | relative viability (NCI-H2126; first compound 0.1265 µM): 0.581 | relative viability (NCI-H2126; first compound 0.4 µM): 0.505 | relative viability (NCI-H2126; first compound 1.265 µM): 0.441 | relative viability (NCI-H838; first compound 0.04 µM): 0.542 | relative viability (NCI-H838; first compound 0.1265 µM): 0.655 | relative viability (NCI-H838; first compound 0.4 µM): 0.596 | relative viability (NCI-H838; first compound 1.265 µM): 0.511 | relative viability (NCI-H23; first compound 0.04 µM): 0.776 | relative viability (NCI-H23; first compound 0.1265 µM): 0.902 | relative viability (NCI-H23; first compound 0.4 µM): 0.814 | relative viability (NCI-H23; first compound 1.265 µM): 0.613 | relative viability (NCI-H647; first compound 0.04 µM): 0.611 | relative viability (NCI-H647; first compound 0.1265 µM): 0.598 | relative viability (NCI-H647; first compound 0.4 µM): 0.478 | relative viability (NCI-H647; first compound 1.265 µM): 0.38 | relative viability (NCI-H1666; first compound 0.04 µM): 0.579 | relative viability (NCI-H1666; first compound 0.1265 µM): 0.552 | relative viability (NCI-H1666; first compound 0.4 µM): 0.508 | relative viability (NCI-H1666; first compound 1.265 µM): 0.363 | relative viability (NCI-H1395; first compound 0.04 µM): 0.452 | relative viability (NCI-H1395; first compound 0.1265 µM): 0.44 | relative viability (NCI-H1395; first compound 0.4 µM): 0.413 | relative viability (NCI-H1395; first compound 1.265 µM): 0.414 | relative viability (LOU-NH91; first compound 0.04 µM): 0.73 | relative viability (LOU-NH91; first compound 0.1265 µM): 0.885 | relative viability (LOU-NH91; first compound 0.4 µM): 0.799 | relative viability (LOU-NH91; first compound 1.265 µM): 0.751 | relative viability (BEN; first compound 0.04 µM): 0.274 | relative viability (BEN; first compound 0.1265 µM): 0.283 | relative viability (BEN; first compound 0.4 µM): 0.247 | relative viability (BEN; first compound 1.265 µM): 0.246 | relative viability (NCI-H2347; first compound 0.04 µM): 0.396 | relative viability (NCI-H2347; first compound 0.1265 µM): 0.475 | relative viability (NCI-H2347; first compound 0.4 µM): 0.484 | relative viability (NCI-H2347; first compound 1.265 µM): 0.405 | relative viability (NCI-H441; first compound 0.04 µM): 0.765 | relative viability (NCI-H441; first compound 0.1265 µM): 1.15 | relative viability (NCI-H441; first compound 0.4 µM): 0.807 | relative viability (NCI-H441; first compound 1.265 µM): 0.28 | relative viability (NCI-H2009; first compound 0.04 µM): 0.519 | relative viability (NCI-H2009; first compound 0.1265 µM): 0.533 | relative viability (NCI-H2009; first compound 0.4 µM): 0.512 | relative viability (NCI-H2009; first compound 1.265 µM): 0.393 | relative viability (NCI-H650; first compound 0.04 µM): 0.42 | relative viability (NCI-H650; first compound 0.1265 µM): 0.494 | relative viability (NCI-H650; first compound 0.4 µM): 0.448 | relative viability (NCI-H650; first compound 1.265 µM): 0.399 | relative viability (EMC-BAC-2; first compound 0.04 µM): 0.513 | relative viability (EMC-BAC-2; first compound 0.1265 µM): 0.554 | relative viability (EMC-BAC-2; first compound 0.4 µM): 0.527 | relative viability (EMC-BAC-2; first compound 1.265 µM): 0.424 | relative viability (NCI-H596; first compound 0.04 µM): 0.772 | relative viability (NCI-H596; first compound 0.1265 µM): 0.808 | relative viability (NCI-H596; first compound 0.4 µM): 0.79 | relative viability (NCI-H596; first compound 1.265 µM): 0.737 | relative viability (HCC-44; first compound 0.04 µM): 0.198 | relative viability (HCC-44; first compound 0.1265 µM): 0.295 | relative viability (HCC-44; first compound 0.4 µM): 0.224 | relative viability (HCC-44; first compound 1.265 µM): 0.141 | relative viability (HARA; first compound 0.04 µM): 0.469 | relative viability (HARA; first compound 0.1265 µM): 0.479 | relative viability (HARA; first compound 0.4 µM): 0.459 | relative viability (HARA; first compound 1.265 µM): 0.372 | relative viability (NCI-H1993; first compound 0.04 µM): 0.574 | relative viability (NCI-H1993; first compound 0.1265 µM): 0.475 | relative viability (NCI-H1993; first compound 0.4 µM): 0.477 | relative viability (NCI-H1993; first compound 1.265 µM): 0.513 | relative viability (NCI-H2023; first compound 0.04 µM): 0.412 | relative viability (NCI-H2023; first compound 0.1265 µM): 0.491 | relative viability (NCI-H2023; first compound 0.4 µM): 0.44 | relative viability (NCI-H2023; first compound 1.265 µM): 0.278 | relative viability (LCLC-103H; first compound 0.04 µM): 0.369 | relative viability (LCLC-103H; first compound 0.1265 µM): 0.34 | relative viability (LCLC-103H; first compound 0.4 µM): 0.389 | relative viability (LCLC-103H; first compound 1.265 µM): 0.371 | relative viability (NCI-H727; first compound 0.04 µM): 0.464 | relative viability (NCI-H727; first compound 0.1265 µM): 0.684 | relative viability (NCI-H727; first compound 0.4 µM): 0.582 | relative viability (NCI-H727; first compound 1.265 µM): 0.509 | relative viability (NCI-H2087; first compound 0.04 µM): 0.472 | relative viability (NCI-H2087; first compound 0.1265 µM): 0.461 | relative viability (NCI-H2087; first compound 0.4 µM): 0.397 | relative viability (NCI-H2087; first compound 1.265 µM): 0.393 | relative viability (NCI-H3122; first compound 0.04 µM): 0.355 | relative viability (NCI-H3122; first compound 0.1265 µM): 0.399 | relative viability (NCI-H3122; first compound 0.4 µM): 0.394 | relative viability (NCI-H3122; first compound 1.265 µM): 0.337

— the supplement of paper PMC10307832
